What all share (type): cell-based, human
In assay [1] the test system is P53, Bax, Bcl-2, caspase 3, caspase 9 in SiHa cells. Put plainly: Western blot of apoptosis-related proteins in SiHa cells. Conditions: SiHa cells, 25, 50, 75 μM, 48 h, compared with control. On the procedure:
We followed the Western blot methods of Tu et al. 2020 [24]. […] The culture was terminated after 48 h. Then, cells were collected and proteins were extracted with RIPA lysis buffer containing a protease inhibitor cocktail. The total protein concentrations were measured using the Bradford method, and the normalized protein samples were added to 4 sample buffer, then boiled and denatured. Equal amounts of proteins were separated by SDS-PAGE and then transferred to nitrocellulose membranes. The membranes were blocked and then probed with indicated primary antibodies, respectively, with anti-P53 (1 : 1000), anti-Bax (1 : 1000), anti-Bcl-2 (1 : 1000), anti-caspase 3 (1 : 2500), anti-caspase 9 (1 : 2500), anti-cleaved-caspase 3 (1 : 1000), and anti-cleaved-caspase 9 (1 : 1000), at 4°C overnight. Antibodies were purchased from Abcam (Santa Cruz, California, CA, USA); others were from Cell Signaling Technology (Cell Signaling, Danvers, Massachusetts, MA, USA). All antibodies were diluted with 5% BSA in TBST buffer. The blots were rinsed and then incubated with secondary antibodies (anti-mouse antibody or anti-rabbit antibody, 1 : 5000, Cell Signaling Technology). Reactive bands were visualized using ECL (Thermo Fisher Scientific; Waltham, MA, USA) and then calibrated by ChemiDoc Imaging System (Bio-Rad; Hercules, California, CA, USA).

Another assay deals with HcerEpic cells. In words: CCK8 antiproliferative activity assay on HcerEpic cells. Conditions: 48 h, read-out: IC50, antiproliferation activity on HcerEpic cells (PC phenolics). The method, then:
(§1) The SiHa cell line was obtained from American Type Culture Collection (ATCC, Manassas, Virginia, VA, USA); HcerEpic cell was obtained from ScienCell (San Diego, Los Angeles, LA, USA). The cells were maintained in medium RP1640 containing 10% FBS, high glucose DMEM cultured with 100 U/ml of penicillin, and 100 U/ml of streptomycin, in a humidified CO2 (5%) incubator at 37°C. All reagents for cell cultures were purchased from Invitrogen (Carlsbad, California, CA, USA).
(§2) SiHa and HcerEpic cells were cultured in 96-well plates at approximately 7.5 × 10^3 cells per well and incubated for 12 h. Then, cells were treated with different concentrations of PC extracts (5, 10, 25, 50, and 100 μg/mL) or seven PC PHE (10, 20, 40, 60, and 80 μM). After incubation of 48 h, then 10 μL CCK8 reagent added per hole, placed in the incubator 2 h, incubation, enzyme standard instrument determination at 450 nm absorbance (OD value).
(§3) Cell vitality∗(%) = [A (dosing) − A (blank)]/[A dosing (O) − A (blank)] × 100%A (dosing): OD values of Wells with cell, CCK8 solution, and drug solution.
(§4) A (blank): OD values of Wells with medium, CCK8 solution, and no cells.
(§5) A (0 dosing): OD values of Wells with cell and CCK8 solution but no drug solution.

A further assay concerns SiHa cells. In words: CCK8 antiproliferative activity assay on SiHa cells. The conditions noted are these: 48 h, read-out: IC50, antiproliferation activity on SiHa cells (PC phenolics). The method, then:
as §1, §2, §3, §4, §5

pIC50: −log10 of the molar value. Read-outs that look alike come from different tables or passages of the source. Some results are limits rather than exact numbers.

Consider `O=c1oc2c(O)c(O)cc3c(=O)oc4c(O)c(O)cc1c4c23` [Ellagic acid], for which, in assay [1], the “expression level of Bcl-2 protein” value is reported as “downregulated”, the “expression level of Caspase3 protein” value is given as “significantly upregulated”, the “expression level of Csapase9 protein” value was “significantly upregulated” and the “expression level of P53 protein” value is “significantly upregulated”. Moreover, in the assay on HcerEpic cells (Homo sapiens), the pIC50 was less than 4.00. The pIC50 with SiHa cells (Homo sapiens, SiHa) was 4.67.

`O=C(O)C[C@@H]1C(=O)O[C@H]2[C@@H]3OC(=O)c4cc(O)c(O)c(O)c4-c4c(cc(O)c(O)c4O)C(=O)OC[C@H]2O[C@@H](OC(=O)c2cc(O)c(O)c(O)c2)[C@@H]3OC(=O)c2cc(O)c(O)c3c2[C@H]1[C@H](O)C(=O)O3` [Chebulagic acid]: the pIC50 is less than 4.00 with HcerEpic cells (Homo sapiens) and less than 4.00 in the assay with SiHa cells (Homo sapiens, SiHa).

`O=C(O)c1cc(O)c(O)c(O)c1` [Gallic acid]: the pIC50 was less than 4.00 in the assay with HcerEpic cells (Homo sapiens) and less than 4.00 in the assay on SiHa cells (Homo sapiens, SiHa).

For the compound Citrate acid, the pIC50 in the assay with HcerEpic cells and in the assay with SiHa cells was less than 4.00 each time.

In the case of `O=C(O[C@@H]1O[C@@H]2COC(=O)c3cc(O)c(O)c(O)c3-c3c(cc(O)c(O)c3O)C(=O)O[C@H]([C@H]1O)[C@@H]2O)c1cc(O)c(O)c(O)c1` [Corilagin], in assay [1], the “expression level of Bcl-2 protein” value is reported as “downregulated”, the “expression level of Caspase3 protein” value is reported as “significantly upregulated”, the “expression level of Csapase9 protein” value was “significantly upregulated” and the “expression level of P53 protein” value was “significantly upregulated”. Further, the pIC50 in the assay with HcerEpic cells (Homo sapiens) was less than 4.00. Besides, the pIC50 in the assay with SiHa cells (Homo sapiens, SiHa) is 4.54.

For `O=C(/C=C/c1ccc(O)c(O)c1)O[C@@H]1C[C@](O)(C(=O)O)C[C@@H](O)[C@H]1O` [Chlorogenic acid], the pIC50 in the assay with HcerEpic cells (Homo sapiens) was less than 4.00; in the assay with SiHa cells (Homo sapiens, SiHa), less than 4.00.

As to `O=C1CC(C(=O)O)c2c1oc(=O)c1cc(O)c(O)c(O)c21` (stereo not shown) [Brevifolin carboxylic acid], the pIC50 in the assay on HcerEpic cells and with SiHa cells was less than 4.00 each time.

Values taken from paper PMC7762659, “Phenolic Compounds from Polygonum chinense Induce Growth Inhibition and Apoptosis of Cervical Cancer SiHa Cells” (BioMed Research International, 2020).
